Patent EP4647433A1, “SHP2 INHIBITOR AND USES THEREOF” (Kanaph Therapeutics Inc., priority 2023, dated 2024)

What was measured:
H358 cells = assay: Cell viability (3D spheroid, 3D CellTiter-Glo); type: cell-based; details: Homo sapiens, NCI-H358, 120 h; H358 spheroids, 5 days treatment
Description: Human non-small cell lung cancer cell line H358 cells were purchased from the Korean Cell Line Bank. Cancer cell lines were cultured in the recommended RPMI-1640 medium supplemented with 10% fetal bovine serum (FBS) and 1% penicillin/streptomycin. Monolayer-cultured cancer cell lines were detached by treatment with Trypsin/EDTA, and 100 µL of cell suspension containing 4 x 10^3 cells was each dispensed into SPL3D™ Cell Floater, 96-well round plate, through cell line counting. After culturing for 72 hours to form spheroid, the cells were individually treated with the compounds according to the Examples, which had been serially diluted (minimum 1.5 nM, maximum 10 µM in concentration), and then cultured in a cell incubator for 5 days. To analyze cell viability, the cells were treated with 50 uL of 3D CellTiter-Glo, stirred for 5 minutes at 500 rpm in a plate shaker from Thermo Fisher Scientific, and incubated for 25 minutes at room temperature. Then, the luminescent values were measured using a Varioskan equipment from Thermo Fisher Scientific. IC50 values were obtained using GraphPad's Prism from the measured values depending on the concentration.
In the cell viability assay, when an IC50 value was 50 nM or more, + was indicated, when an IC50 value was 10 nM or more and less than 50 nM, ++ was indicated, and when an IC50 value was less than 10 nM, +++ was indicated.

phospho-ERK = phospho-ERK assay (AlphaLisa) in H358 cells; type: cell-based; details: Homo sapiens, NCI-H358, 1.5 hours incubation, read-out: pERK assay (IC50)
Description: H358 [20,000 cell/well] was contained in 40 µL of the cell culture solution (RPMI, 10% FBS, penicillin, streptomycin) and placed on a 384-well plate. After 24 hours, the serially diluted compound according to the Examples (concentration of minimum 0.13 nM, maximum 10 µM) was contained in 10 µL of the cell culture solution, put into wells containing cells, and incubated in a cell incubator for 1.5 hours. As a positive control group, the selective SHP2 inhibitor, TNO155 (Chemietek, US; concentration ranging from 0.13 nM to 10 µM) was used.
Thereafter, phospho-ERK was labeled using an AlphaLisa system from PerkinElmer according to the manufacturer's instructions, and then fluorescence (680 nm excitation wavelength, 615 nm emission wavelength) values were measured using a Varioskan equipment from Thermo. IC50 values were obtained using Graphad's Prism from the measured values depending on the concentration.
Intracellular SHP2 activity can be confirmed by measuring the degree of phosphorylation of ERK (extracellular signal regulated kinase), which represents Ras/Raf/ERK, a downstream signal pathway of SHP2. Inhibition of ERK phosphorylation by SHP2 inhibitors was confirmed through phospho-ERK analysis, which confirmed that the SHP2 inhibitors of the present disclosure have excellent activity in inhibiting ERK phosphorylation mediated by SHP2.

SHP2 = molecular target: T1, SHP2 (Homo sapiens, UniProt Q06124); assay: Phosphatase assay (PTPase assay, DiFMUP substrate); type: biochemical; details: full length SHP2 100 pM activated with SHP2 activating peptide, DiFMUP 80 µM, 2 hours; read-out: PTPase assay (IC50)
T1 construct: SHP2 (full length, diluted to 100 pM final concentration in reaction buffer, BPS bioscience, US); purchased BPS bioscience, US
T1 sequence (Q06124 1-593): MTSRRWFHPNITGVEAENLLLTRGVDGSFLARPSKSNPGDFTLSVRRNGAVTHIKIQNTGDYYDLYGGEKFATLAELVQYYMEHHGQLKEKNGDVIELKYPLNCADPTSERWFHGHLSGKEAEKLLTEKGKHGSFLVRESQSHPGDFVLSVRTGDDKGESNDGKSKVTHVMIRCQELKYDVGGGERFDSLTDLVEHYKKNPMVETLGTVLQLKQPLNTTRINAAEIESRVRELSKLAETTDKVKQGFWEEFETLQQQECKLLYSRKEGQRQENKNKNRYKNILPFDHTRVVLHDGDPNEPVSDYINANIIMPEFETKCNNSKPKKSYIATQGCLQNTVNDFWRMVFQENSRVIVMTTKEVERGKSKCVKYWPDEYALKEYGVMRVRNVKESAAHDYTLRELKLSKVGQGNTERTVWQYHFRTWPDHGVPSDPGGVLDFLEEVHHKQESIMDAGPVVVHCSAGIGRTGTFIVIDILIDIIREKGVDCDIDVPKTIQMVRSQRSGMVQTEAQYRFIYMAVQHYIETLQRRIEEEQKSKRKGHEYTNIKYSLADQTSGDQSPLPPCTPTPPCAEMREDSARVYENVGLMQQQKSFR
Description: IC50 values were measured using 6,8-difluoro-4-methylumbelliferyl phosphate (DiFMUP) as a substrate. The reaction was performed in a 384-well plate, and fluorescence measurement values were obtained using an EnVision plate reader from PerkinElmer.
SHP2 (full length, diluted to 100 pM final concentration in reaction buffer, BPS bioscience, US) was incubated with the SHP2 activating peptide in reaction buffer (60 mM HEPES (pH 7.2), 75 mM NaCl, 75 mM KCl, 1 mM EDTA, 5 mM DTT, 0.05% P-20) for 30 minutes to activate SHP2. After activation, DMSO [1% (V/V) or the compound according to the Examples (concentration ranging from 0.6 nM to 10 µM)] was added. As a positive control group, the selective SHP2 inhibitors SHP099 (6-(4-amino-4-methylpiperidin-1-yl)-3-(2,3-dichlorophenyl)pyrazin-2-amine, FOCUS bioscience, Austrailia; concentration ranging from 0.6 nM to 10 µM) and TNO155 ((3S,4S)-8-(6-amino-5-((2-amino-3-chloropyridin-4-yl)thio)pyrazin-2-yl)-3-methyl-2-oxa-8-azaspiro[4.5]decan-4-amine, Chemietek, US; concentration ranging from 0.6 nM to 10 µM) were used. [drawing 184]
DiFMUP (80 µM) was added to the reaction and incubated for a total of 2 hours to allow for the reaction to proceed. Thereafter, fluorescence (340 nm excitation, 450 nm emission) values were measured. IC50 values were obtained using Graphad's Prism from the measured values depending on the concentration.
In the phosphatase assay (PTPase assay), when an IC50 value was 100 nM or more, + was indicated, when an IC50 value was 3 nM or more and less than 100 nM, ++ was indicated, and when an IC50 value was less than 3 nM, +++ was indicated.

[1] = Brain-plasma Pharmacokinetics; details: mouse, 20 mg/kg
Description: Nine male CD-1 mice (ICR mouse) aged 6 to 9 weeks were treated with the compounds according to the Examples at a concentration of 20 mg/kg. 0.025 mL of blood and brain tissue were collected at 1 hour, 8 hours, and 24 hours post-treatment, respectively. The collected blood was placed in an EDTA-K2 tube, centrifuged at 4°C at 3,200 x g for 10 minutes, and the supernatant plasma was collected. The brain tissue samples were collected immediately after euthanizing the CD-1 mice after blood collection and performing cardiac perfusion with cold saline. After collection, the brain tissues were washed with cold saline, wiped and dried, weighed, and homogenized using a homogenization buffer (15 mM PBS (pH 7.4): MeOH = 2:1) at a ratio of 1:3 (1 g of tissue to 3 mL of buffer, dilution ratio 4). Plasma and homogenized brain tissue samples were each transferred to a polypropylene microcentrifuge tube and stored at -60°C or lower. The concentration of compounds distributed in plasma and brain tissue was analyzed using LC-MS/MS, and the distribution in brain tissue compared to plasma was calculated as follows. Brain-to-plasma ratio = AUC(0-t) brain tissue /AUC(0-t) plasma [formula]
In the Brain-plasma Pharmacokinetics assay, when a brain-to-plasma ratio value was 0.05 or more and less than 0.1, + was indicated, when a brain-to-plasma ratio value was 0.1 or more and less than 0.25, ++ was indicated, and when a brain-to-plasma ratio value was more than 0.25, +++ was indicated.

IC50 (H358 cells)	IC50 (phospho-ERK)	IC50 (SHP2)	Kp at 24 h ([1]; male, CD-1 (ICR), brain/plasma)	SMILES	Kp at 24 h ([1]; brain)
< 0.01 µM	< 0.045 µM	< 0.003 µM	0.05 to 0.1	CC(C)(O)Cn1cnc2ccc(Sc3cnc(N4CCC5(CC4)Cc4ccccc4[C@H]5N)cn3)c(Cl)c2c1=O [Example 25, (S)-6-((5-(1-amino-1,3-dihydrospiro[indene-2,4'-piperidin]-1'-yl)pyrazin-2-yl)thio)-5-chloro-3-(2-hydroxy-2-methylpropyl)quinazolin-4(3H)-one]	–
< 0.01 µM	< 0.045 µM	< 0.003 µM	> 0.25	COC(C)(C)Cn1cnc2ccc(Sc3cnc(N4CCC5(CC4)Cc4ccccc4[C@H]5N)cn3)c(Cl)c2c1=O [Example 27, (S)-6-((5-(1-amino-1,3-dihydrospiro[indene-2,4'-piperidin]-1'-yl)pyrazin-2-yl)thio)-5-chloro-3-(2-methoxy-2-methylpropyl)quinazolin-4(3H)-one]	–
< 0.01 µM	0.045 to 1.5 µM	0.003 to 0.1 µM	> 0.25	COC(C)(C)Cn1cnc2ccc(Sc3cnc(N4CCC5(CC4)Cc4ccccc4[C@H]5N)cn3)cc2c1=O [Example 29, (S)-6-((5-(1-amino-1,3-dihydrospiro[indene-2,4'-piperidin]-1'-yl)pyrazin-2-yl)thio)-3-(2-methoxy-2-methylpropyl)quinazolin-4(3H)-one]	–
< 0.01 µM	< 0.045 µM	–	0.1 to 0.25	COC(C)(C)Cn1cnc2ccc(Sc3cnc(N4CCC5(CC4)Cc4ncsc4[C@H]5N)cn3)c(Cl)c2c1=O [Example 32, (S)-6-((5-(6-amino-4,6-dihydrospiro[cyclopenta[d]thiazole-5,4'-piperidin]-1'-yl)pyrazin-2-yl)thio)-5-chloro-3-(2-methoxy-2-methylpropyl)quinazolin-4(3H)-one]	–
< 0.01 µM	0.045 to 1.5 µM	< 0.003 µM	0.1 to 0.25	COC(C)(C)Cn1cnc2ccc(Sc3nc(CO)c(N4CCC5(CC4)Cc4ccccc4[C@H]5N)nc3C)c(Cl)c2c1=O [Example 35, (S)-6-((5-(1-amino-1,3-dihydrospiro[indene-2,4'-piperidin]-1'-yl)-6-(hydroxymethyl)-3-methylpyrazin-2-yl)thio)-5-chloro-3-(2-methoxy-2-methylpropyl)quinazolin-4(3H)-one]	–
< 0.01 µM	< 0.045 µM	< 0.003 µM	0.05 to 0.1	COC(C)(C)Cn1cnc2ccc(Sc3ncc(N4CCC5(CC4)Cc4ccccc4[C@H]5N)nc3N)c(Cl)c2c1=O [Example 36, (S)-6-((3-amino-5-(1-amino-1,3-dihydrospiro[indene-2,4'-piperidin]-1'-yl)pyrazin-2-yl)thio)-5-chloro-3-(2-methoxy-2-methylpropyl)quinazolin-4(3H)-one]	–
0.01 to 0.05 µM	0.045 to 1.5 µM	< 0.003 µM	> 0.25	Cn1ccc2ccc(Sc3cnc(N4CCC5(CC4)Cc4ccccc4[C@H]5N)cn3)c(Cl)c2c1=O [Example 41, (S)-7-((5-(1-amino-1,3-dihydrospiro[indene-2,4'-piperidin]-1'-yl)pyrazin-2-yl)thio)-8-chloro-2-methylisoquinolin-1(2H)-one]	–
< 0.01 µM	0.045 to 1.5 µM	< 0.003 µM	> 0.25	COC(C)(C)Cn1ccc2ccc(Sc3cnc(N4CCC5(CC4)Cc4ccccc4[C@H]5N)cn3)c(Cl)c2c1=O [Example 43, (S)-7-((5-(1-amino-1,3-dihydrospiro[indene-2,4'-piperidin]-1'-yl)pyrazin-2-yl)thio)-8-chloro-2-(2-methoxy-2-methylpropyl)isoquinolin-1(2H)-one]	–
< 0.01 µM	0.045 to 1.5 µM	0.003 to 0.1 µM	> 0.25	COC(C)(C)Cn1ccc2ccc(Sc3cnc(N4CCC5(CC4)Cc4ccccc4[C@H]5N)cn3)cc2c1=O [Example 44, (S)-7-((5-(1-amino-1,3-dihydrospiro[indene-2,4'-piperidin]-1'-yl)pyrazin-2-yl)thio)-2-(2-methoxy-2-methylpropyl)isoquinolin-1(2H)-one]	–
< 0.01 µM	0.045 to 1.5 µM	< 0.003 µM	0.1 to 0.25	Cn1ccc2ccc(Sc3cnc(N4CCC5(CC4)Cc4ccccc4[C@H]5N)cn3)cc2c1=O [Example 45, (S)-7-((5-(1-amino-1,3-dihydrospiro[indene-2,4'-piperidin]-1'-yl)pyrazin-2-yl)thio)-2-methylisoquinolin-1(2H)-one]	–

SMILES	IC50 (H358 cells)	IC50 (phospho-ERK)	IC50 (SHP2)	Kp at 24 h ([1]; male, CD-1 (ICR), brain/plasma)	Kp at 24 h ([1]; brain)
Cn1cnc2ccc(Sc3cnc(N4CCC5(CC4)Cc4ccccc4[C@H]5N)cn3)c(Cl)c2c1=O [Example 7, (S)-6-((5-(1-amino-1,3-dihydrospiro[indene-2,4'-piperidin]-1'-yl)pyrazin-2-yl)thio)-5-chloro-3-methylquinazolin-4(3H)-one]	< 0.01 µM	< 0.045 µM	< 0.003 µM	–	0.1 to 0.25
COC(C)(C)Cn1cnc2ccc(Sc3cnc(N4CCC5(CC4)CO[C@@H](C)[C@H]5N)cn3)c(Cl)c2c1=O [Example 18, 6-((5-((3S,4S)-4-amino-3-methyl-2-oxa-8-azaspiro[4.5]decan-8-yl)pyrazin-2-yl)thio)-5-chloro-3-(2-methoxy-2-methylpropyl)quinazolin-4(3H)-one]	< 0.01 µM	< 0.045 µM	< 0.003 µM	> 0.25	–
COC(C)(C)Cn1cnc2ccc(Sc3ncc(N4CCC5(CC4)CO[C@@H](C)[C@H]5N)nc3N)c(Cl)c2c1=O [Example 37, 6-((3-amino-5-((3S,4S)-4-amino-3-methyl-2-oxa-8-azaspiro[4.5]decan-8-yl)pyrazin-2-yl)thio)-5-chloro-3-(2-methoxy-2-methylpropyl)quinazolin-4(3H)-one]	0.01 to 0.05 µM	0.045 to 1.5 µM	0.003 to 0.1 µM	0.05 to 0.1	–
